Laboratory results from patent publication US20260285853A1, “COMPOUNDS AND METHODS FOR MODULATING SPLICING” (REMIX THERAPEUTICS INC., priority 2023, published 2026).

How the values were obtained:
Type in all cases: cell-based
HTT mRNA [1] = test: Splicing RT-qPCR assay (THP), Table 2A; details: Table 2A (THP); for AC50: AJ mRNA increase, read-out: HTT AJ (increase in alternative junction mRNA, AC50); for IC50: CJ mRNA decrease, read-out: HTT CJ (decrease in canonical junction mRNA, IC50)
MYB mRNA [2] = test: Gene panel canonical junction qPCR assay, decrease in CJ mRNA, Table 3; details: decrease in canonical junction (CJ) mRNA, gene panel qPCR, Table 3
In short: (§1)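 A673 cells were plated, left to adhere for 24 h, then dosed; K562 cells were plated in 96- or 384-well format and dosed directly. Both were incubated 24 h at 37 °C with an 11-point 3-fold series (top 10 uM final). Canonical junction mRNA was then read by cDNA synthesis and qPCR.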

HTT mRNA [3] = test: as above; details: decrease in canonical junction (CJ) mRNA, gene panel qPCR, Table 3
In short: as §1

SMN2 mRNA = test: as above; details: decrease in canonical junction (CJ) mRNA, gene panel qPCR, Table 3
In short: as §1

[4] = tested on: SH-SY5Y (human neuroblastoma) cells; test: Cell viability, Cell Titer Glo 2.0 assay; details: read-out: Viability SHSY5Y.3 GI50
In short: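 SH-SY5Y neuroblastoma cells are exposed to test compounds for 72 hours at 37 °C and 5% CO2, with final DMSO held at 0.1%. Cell viability is then measured with the CellTiter-Glo 2.0 assay.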

MYB mRNA [5] = test: Splicing RT-qPCR assay (THP), Table 2A; details: Table 2A (THP); for AC50: AJ mRNA increase, read-out: MYB AJ (increase in alternative junction mRNA, AC50); for IC50: CJ mRNA decrease, read-out: MYB CJ (decrease in canonical junction mRNA, IC50)

Row | SMILES | AC50 (HTT mRNA [1]) [µM] | IC50 (HTT mRNA [1]) [µM] | IC50 (MYB mRNA [2]) [nM] | IC50 (HTT mRNA [3]) [µM] | IC50 (SMN2 mRNA) [nM] | GI50 [4] [µM] | AC50 (MYB mRNA [5]) [nM] | IC50 (MYB mRNA [5]) [nM]
1 | Cc1cn2cc(NC(=O)c3c(F)cc(N4CCNCC4)c4occc34)cc(F)c2n1 [Compound 247, 5-fluoro-N-(8-fluoro-2-methylimidazo-[1,2-a]pyridin-6-yl)-7-piperazin-1-yl-benzofuran-4-carboxamide] | > 10 | > 10 | > 10000 | > 10 | 1000 to 10000 | 1 to 10 | > 10000 | > 10000
2 | Cc1cn2cc(NC(=O)c3ccc(N4CCNC(C(F)(F)F)C4)c4cn(C)nc34)cc(F)c2n1 (stereo not shown) [Compound 248, N-(8-fluoro-2-methyl-imidazo[1,2-a]-pyridin-6-yl)-2-methyl-4-[3-(trifluoro-methyl)piperazin-1-yl]indazole-7-carboxamide] | > 10 | > 10 | 1000 to 10000 | > 10 | 100 to 1000 | > 10 | 1000 to 10000 | > 10000
3 | Cc1cn2cc(NC(=O)c3ccc(N4CCNC(C(F)F)C4)c4cn(C)nc34)cc(F)c2n1 (stereo not shown) [Compound 249, 4-[3-(difluoromethyl)piperazin-1-yl]-N-(8-fluoro-2-methylimidazo[1,2-a]pyridin-6-yl)-2-methyl-indazole-7-carboxamide] | > 10 | 1 to 10 | 100 to 1000 | 1 to 10 | < 100 | 1 to 10 | 100 to 1000 | 100 to 1000
4 | COc1cc(N2CCNCC2)c2cn(C)nc2c1C(=O)Nc1cc(F)c2nc(C)cn2c1 [Compound 250, N-(8-fluoro-2-methyl-imidazo[1,2-a]pyridin-6-yl)-6-methoxy-2-methyl-4-piperazin-1-yl-indazole-7-carboxamide] | > 10 | > 10 | > 10000 | > 10 | 1000 to 10000 | > 10 | 1000 to 10000 | 1000 to 10000
5 | Cc1cn2cc(NC(=O)c3ccc(N4CCNCC4=O)c4cn(C)nc34)cc(F)c2n1 [Compound 251, N-(8-fluoro-2-methylimidazo[1,2-a]-pyridin-6-yl)-2-methyl-4-(2-oxopiperazin-1-yl)-2H-indazole-7-carboxamide 2,2,2-trifluoroacetate] | > 10 | > 10 | > 10000 | > 10 | 1000 to 10000 | > 10 | > 10000 | > 10000
6 | Cc1cn2cc(NC(=O)c3ccc(N4C[C@@H](C)N[C@@H](C)C4)c4nn(C)nc34)cc(F)c2n1 [Compound 252, 7-((3S,5R)-3,5-dimethyl-piperazin-1-yl)-N-(8-fluoro-2-methyl-imidazo[1,2-a]pyridin-6-yl)-2-methyl-2H-benzo[d][1,2,3]triazole-4-carboxamide 2,2,2-trifluoroacetate] | 1 to 10 | 0.1 to 1 | 100 to 1000 | 0.1 to 1 | < 100 | 1 to 10 | 100 to 1000 | 100 to 1000
7 | Cc1cn2cc(NC(=O)c3ccc(N4CCNCC4=O)c4[nH]cnc34)cc(F)c2n1 [Compound 257, N-(8-fluoro-2-methyl-imidazo[1,2-a]-pyridin-6-yl)-7-(2-oxopiperazin-1-yl)-1H-benzimidazole-4-carboxamide] | > 10 | > 10 | > 10000 | > 10 | 1000 to 10000 | > 10 | > 10000 | > 10000
8 | Cc1cn2cc(NC(=O)c3ccc(N4C[C@@H](C)N[C@@H](C)C4)c4nnn(C)c34)cc(F)c2n1 [Compound 261, 7-[(3R,5S)-3,5-dimethylpiperazin-1-yl]-N-(8-fluoro-2-methyl-imidazo[1,2-a]pyridin-6-yl)-3-methyl-benzotriazole-4-carboxamide] | > 10 | > 10 | > 10000 | > 10 | > 10000 | > 10 | > 10000 | > 10000
9 | CO[C@H]1C[C@H](N[C@H]2CCN(c3ccc(C(=O)Nc4cc(F)c5nc(C)cn5c4)c4nn(C)cc34)C2)C1 [Compound 275, N-(8-fluoro-2-methylimidazo[1,2-a]pyridin-6-yl)-4-((S)-3-(((1r,3S)-3-methoxycyclobutyl)amino)pyrrolidin-1-yl)-2-methyl-2H-indazole-7-carboxamide] | 1 to 10 | 1 to 10 | 100 to 1000 | 1 to 10 | < 100 | 1 to 10 | 100 to 1000 | 100 to 1000
10 | CO[C@H]1C[C@@H](N[C@H]2CCN(c3ccc(C(=O)Nc4cc(F)c5nc(C)cn5c4)c4nn(C)cc34)C2)C1 [Compound 277, N-(8-fluoro-2-methylimidazo[1,2-a]pyridin-6-yl)-4-((S)-3-(((1s,3R)-3-methoxy-cyclobutyl)amino)pyrrolidin-1-yl)-2-methyl-2H-indazole-7-carboxamide] | 1 to 10 | 1 to 10 | 100 to 1000 | 1 to 10 | < 100 | 1 to 10 | 100 to 1000 | 100 to 1000
11 | Cc1cn2cc(NS(=O)(=O)c3ccc(N4C[C@@H](C)N[C@@H](C)C4)c4cn(C)nc34)cc(F)c2n1 [Compound 279] | > 10 | > 10 | > 10000 | > 10 | > 10000 | > 10 | > 10000 | > 10000
12 | CCNC1CCN(c2ccc(C(=O)Nc3cc(F)c4nc(COC)cn4c3)c3nn(C)cc23)CC1 [Compound 284, 4-[4-(ethylamino)-1-piperidyl]-N-[8-fluoro-2-(methoxymethyl)imidazo[1,2-a]pyridin-6-yl]-2-methyl-indazole-7-carboxamide] | > 10 | > 10 | 1000 to 10000 | 1 to 10 | 100 to 1000 | > 10 | 1000 to 10000 | > 10000
13 | COCCN[C@@H]1CCN(c2cc(O)c(C(=O)Nc3cc(F)c4nc(C)cn4c3)c3nn(C)cc23)C1 [Compound 285, N-(8-fluoro-2-methyl-imidazo[1,2-a]pyridin-6-yl)-6-hydroxy-4-[(3R)-3-(2-methoxyethylamino)pyrrolidin-1-yl]-2-methyl-indazole-7-carboxamide] | > 10 | > 10 | < 100 | > 10 | < 100 | 1 to 10 | < 100 | < 100
14 | Cc1cn2cc(NC(=O)c3c(O)cc(N4CC[C@@H](NC5CC5)C4)c4cn(C)nc34)cc(F)c2n1 [Compound 288, 4-[(3R)-3-(cyclopropylamino)-pyr-rolidin-1-yl]-N-(8-fluoro-2-methyl-imidazo[1,2-a]pyridin-6-yl)-6-hydroxy-2-methyl-indazole-7-carboxamide] | > 10 | > 10 | < 100 | > 10 | < 100 | 0.1 to 1 | < 100 | < 100
15 | Cn1cc2cc(NC(=O)c3c(O)cc(N4CC[C@@H](NC5CC5)C4)c4cn(C)nc34)cc(F)c2n1 [Compound 291, 4-[(3R)-3-(cyclopropylamino)pyrrolidin-1-yl]-N-(7-fluoro-2-methyl-indazol-5-yl)-6-hydroxy-2-methyl-indazole-7-carboxamide] | 1 to 10 | > 10 | < 100 | 1 to 10 | < 100 | 0.1 to 1 | < 100 | < 100
16 | CCN[C@@H]1CCN(c2cc(O)c(C(=O)Nc3cc(F)c4nn(C)cc4c3)c3nn(C)cc23)C1 [Compound 294, 4-[(3R)-3-(ethylamino)-pyrrolidin-1-yl]-N-(7-fluoro-2-methyl-indazol-5-yl)-6-hydroxy-2-methyl-indazole-7-carboxamide] | 1 to 10 | 1 to 10 | < 100 | 0.1 to 1 | < 100 | 0.1 to 1 | < 100 | < 100
17 | Cc1cn2cc(NC(=O)c3ccc(N4CCC(NC5CC5)CC4)c4cn(C)nc34)nc2c(C)n1 [Compound 297, 4-[4-(cyclopropylamino)-1-piperidyl]-N-(6,8-dimethylimidazo[1,2-a]pyrazin-2-yl)-2-methyl-indazole-7-carboxamide] | > 10 | > 10 | 100 to 1000 | > 10 | < 100 | 1 to 10 | 100 to 1000 | 1000 to 10000
